Consider twelve compounds from patent US10696692B2, “Amido-benzyl sulfone and sulfoxide derivates” (Forma TM, LLC, priority 2012, dated 2020).

In one assay the test system is A2780 cells. The assay is described as follows: Assay 2: In-Vitro Cell Proliferation Assay (A2780 cells, SRB readout, 72 hours).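 Note: viable cells counted via sulforhodamine B staining, absorbance at 570 nm, after 72 h exposure at 37 °C, DMSO 0.1% as control, media-only background subtracted.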 The format is cell-based. Particulars: Homo sapiens, A2780, 72 h, A2780 cells, 72 hours, SRB; read-out: Cell Proliferation (IC50).
The target of a further assay is NAMPT (Homo sapiens (Human), UniProt P43490). The assay is described as follows: Assay 1: Biochemical Inhibition Assay (NAMPT enzymatic reaction, NMN quantified by mass spectrometry).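 Note: recombinant His-tagged human NAMPT preincubated with compound 15 min, then reacted 30 min at rt with 1 µM NAM, 100 µM PRPP, 2.5 mM ATP, NMN product read by RapidFire MS, normalized to L-Cystathionine internal standard.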 The following applies: read-out: Biochemical (IC50).

Structures are written as SMILES. pIC50: −log10 of the molar value.

Sequence of NAMPT (P43490 whole entry): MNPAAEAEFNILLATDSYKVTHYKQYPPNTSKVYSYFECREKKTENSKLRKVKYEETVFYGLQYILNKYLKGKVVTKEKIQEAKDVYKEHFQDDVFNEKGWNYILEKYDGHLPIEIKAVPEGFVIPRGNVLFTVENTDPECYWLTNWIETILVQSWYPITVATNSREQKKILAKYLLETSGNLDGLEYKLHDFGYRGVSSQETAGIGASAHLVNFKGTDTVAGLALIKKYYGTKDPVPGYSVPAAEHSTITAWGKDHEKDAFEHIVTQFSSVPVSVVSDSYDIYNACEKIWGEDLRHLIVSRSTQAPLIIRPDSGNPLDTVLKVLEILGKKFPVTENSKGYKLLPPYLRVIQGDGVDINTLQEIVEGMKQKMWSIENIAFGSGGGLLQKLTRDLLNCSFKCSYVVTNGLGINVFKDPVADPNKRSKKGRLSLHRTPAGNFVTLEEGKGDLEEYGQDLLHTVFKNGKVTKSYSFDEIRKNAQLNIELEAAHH

With `O=C(NCc1ccc([S+]([O-])C2CCN(CC(F)(F)F)CC2)cc1)c1ccc2nccn2c1` (stereo not drawn) [Example 364, N-[[4-[[1-(2,2,2-tnfluoroethyl)-4-piperidyl]sulfinyl]phenyl]methyl]imidazo[1,2-a]pyridine-6-carboxamide], the pIC50 with A2780 cells was 8.45; at NAMPT it was 8.53.
For `O=C(NCc1ccc([S+]([O-])C2CCN(C3CCOCC3)CC2)cc1)N1Cc2ccncc2C1` (stereo not drawn) [Example 365, N-[[4-[(1-tetrahydropyran-4-yl-4-piperidyl)sulfinyl]phenyl]methyl]-1,3-dihydropyrrolo[3,4-c]pyridine-2-carboxamide] the same measures were 7.70 and 8.69.
Take `CC(C)N1CCC([S+]([O-])c2ccc(CNC(=O)c3cnc4[nH]ncc4c3)cc2)CC1` (stereo not drawn) [Example 366, N-[[4-[(1-isopropyl-4-piperidyl)sulfinyl]phenyl]methyl]-1H-pyrazolo[3,4-b]pyridine-5-carboxamide]: the results for the pIC50 with A2780 cells and at NAMPT were 7.11 and 7.54, respectively.
In the case of `O=C(NCc1ccc([S+]([O-])C2CCN(CC(F)(F)F)CC2)cc1)c1cnc2[nH]ncc2c1` (stereo not drawn) [Example 367, N-[[4-[[1-(2,2,2-trifluoroethyl)-4-piperidyl)sulfinyl]phenyl]methyl]-1H-pyrazolo[3,4-b]pyridine-5-carboxamide], the pIC50 in the assay on A2780 cells is 7.82; at NAMPT it was 7.06.
The matching figures for `CN1CCC([S+]([O-])c2ccc(CNC(=O)c3ccc4nccn4c3)cc2)CC1` (stereo not drawn) [Example 371, N-[[4-[(1-methyl-4-piperidyl)sulfinyl]phenyl]methyl]imidazo[1,2-a]pyridine-6-carboxamide]: 7.91 and 7.42.
The matching figures for `CN1CCC([S+]([O-])c2ccc(CNC(=O)N3Cc4ccncc4C3)cc2)CC1` (stereo not drawn) [Example 372, N-[[4-[(1-methyl-4-piperidyl)sulfinyl]phenyl]methyl]-1,3-dihydropyrrolo[3,4-c]pyridine-2-carboxamide]: 7.21 and 7.24.
The matching figures for `CCN1CCC([S+]([O-])c2ccc(CNC(=O)c3cnc4[nH]ncc4c3)cc2)CC1` (stereo not drawn) [Example 373, N-[[4-[(1-ethyl-4-piperidyl)sulfinyl]phenyl]methyl]-1H-pyrazolo[3,4-b]pyridine-5-carboxamide]: 7.81 and 6.95.
As for `CC(C)CN1CCC([S+]([O-])c2ccc(CNC(=O)N3Cc4ccncc4C3)cc2)CC1` (stereo not drawn) [Example 374, N-[(4-[(1-isobutyl-4-piperidyl)sulfinyl]phenyl]methyl]-1,3-dihydropyrrolo[3,4-c]pyridine-2-carboxamide], the pIC50 in the assay with A2780 cells was 8.55; at NAMPT, 7.82.
The matching figures for `CCCN1CCC([S+]([O-])c2ccc(CNC(=O)c3ccc4nccn4c3)cc2)CC1` (stereo not drawn) [Example 375, N-[[4-[(1-propyl-4-piperidyl)sulfinyl]phenyl]methyl)imidazo[1,2-a]pyridine-6-carboxamide]: 7.61 and 7.56.
The matching figures for `O=C(NCc1ccc([S+]([O-])C2CCN(CC(F)(F)F)CC2)cc1)N1Cc2ccncc2C1` (stereo not drawn) [Example 376, N-[[4-[[1-(2,2,2-tnfluoroethyl)-4-piperidyl]sulfinyl]phenyl]methyl]-1,3-dihydropyrrolo[3,4-c]pyridine-2-carboxamide]: 8.07 and 8.24.
As for `CCCN1CCC([S+]([O-])c2ccc(CNC(=O)N3Cc4ccncc4C3)cc2)CC1` (stereo not drawn) [Example 377, N-[[4-[(1-propyl-4-piperidyl)sulfinyl]phenyl]methyl]-1,3-dihydropyrrolo[3,4-c]pyridine-2-carboxamide], the pIC50 was 7.62 in the assay with A2780 cells and 7.60 at NAMPT.
On to `CCCN1CCC([S+]([O-])c2ccc(CNC(=O)c3cnc4[nH]ncc4c3)cc2)CC1` (stereo not drawn) [Example 378, N-[[4-[(1-propyl-4-piperidyl)sulfinyl]phenyl]methyl)-1H-pyrazolo[3,4-b]pyridine-5-carboxamide], for which the figures for the pIC50 in the assay with A2780 cells and at NAMPT were 6.84 and 6.23, respectively.
